Laboratory results: patent US20020016293A1 (priority 2000, published 2002)
Counter-ions that a name gives are not always drawn. Like-named read-outs stand apart in the source and are kept apart here. Non-standard residues stand in square brackets, D forms with d. Residues, ends and D or L forms follow the SMILES beside them. ξ: configuration not given here. *: point of attachment. NMeI = CC[C@H](C)[C@H](NC)C(=O)O; NMeξIle = CC[C@H](C)C(NC)C(=O)O; NMeD = CN[C@@H](CC(=O)O)C(=O)O; NMeV = CN[C@H](C(=O)O)C(C)C; Pip = O=C(O)[C@@H]1CCCCN1; Lac = C[C@H](O)C(=O)O; OtBu = CC(C)(C)O*

Columns and labels:
[1] = cited from earlier work; for absorption (in words): oral unless stated
p-glycoprotein [2] = settings: cited from earlier work
p-glycoprotein [3] = settings: cited from earlier work; remark: listed apart in the source
[4] = system: multidrug resistant cells; settings: no change in nonresistant parental cells; cited from earlier work
[5] = Plasma pharmacokinetics of flavopiridol and flavopiridol glucuronide in metastatic renal cancer patients (HPLC); type: in vivo, human
Text: All patients had metastatic renal cancer. […] Written informed consent was obtained from each patient in accordance with institutional and Federal guidelines. […] Toxicity assessment was done according to the Cancer and Leukemia Group B (CALGB) expanded toxicity criteria. For grade 3 or greater diarrheal episodes, patients were given loperamide or diphenoxylate hydrochloride plus atropine sulfate (Lomotil®). If diarrhea continued, treatment with octreotide acetate was begun. […] Heparinized blood samples were drawn at 23, 47, and 71 h into the infusion. Plasma was separated immediately by centrifugation and stored at −70° C. until analysis. Chemicals were obtained from Fisher Scientific (Itasca, Ill.) and Sigma Chemical Co. (St. Louis, Mo.). Quantitation of flavopiridol and its glucuronide in plasma was performed by high-pressure liquid chromatography (HPLC). […] Louis, Mo.), and these samples were incubated for 2 h (25° C.) prior to the addition of acetonitrile. […] Human plasma for the preparation of calibration standards was purchased from the Blood Bank at the University of Chicago Hospitals. […] Plasma samples for pharmacokinetics were collected during the first cycle of treatment (at 23, 47, and 71 h). […] Data are expressed as median values and interquartile range (the range of values between the 25th and the 75th percentile of the distribution). Significance has been tested by two-sided statistical tests. […] Moreover, Fisher's exact test was used to assess the association of flavopiridol systemic metabolism with the development of diarrhea. The distribution of the metabolic ratios at 71 h was investigated by constructing a frequency distribution histogram.

neoplastic cells = settings: in vitro; cited from earlier work
[6] = FLAVO glucuronidation assay, normal human liver microsomes; type: in vitro ADME; settings: pooled human liver microsomes, pH 7.4; pool of human liver microsomes, substrate 0.1 to 3 mM, Lineweaver-Burke
Method: FLAVO glucuronidation assay. Reaction conditions were optimized using a range of substrate (0.02-1 mM), human liver microsomal protein (0.25-6 mg/ml) and UDPGA (2-10 mM) concentrations, as well as varying detergents (Brij 58, OLPC, CHAPS, Triton X-100, OLPC), and incubation times (0.5-4 h). […] The final incubation volume (250 μl) contained 50 mM tris-HCl (pH 7.4), 10 mM magnesium chloride, 0.5 mM FLAVO, 3 mg/ml protein, and 3 mM UDPGA. After incubation in a shaking water bath at 37° C. for 3 h, the reaction was terminated by the addition of 1 ml of acetonitrile. […] The supernatant was spiked with 100 μl of internal standard (100 μg/ml flavone in acetonitrile), and evaporated to dryness using nitrogen gas. Control experiments were performed simultaneously by omitting UDPGA. […] Aliquots (125 μl) were analyzed by high performance liquid chromatography (HPLC; Hitachi Instruments, Inc., San Jose, Calif., USA) with UV detection (265 nm). Reversed-phase chromatography was carried out using a μBondapak Phenyl column (10 μm, 3.9×300 mm; Waters Corporation, Milford, Mass., USA), and a μBondapak Phenyl guard-pak insert (Waters Corporation, Milford, Mass., USA).
Data analysis and statistics. Results were expressed as mean ± standard deviation (SD) of a single experiment performed in triplicate. […]

[7] = Diarrhea (CALGB expanded toxicity criteria) in patients given flavopiridol, by glucuronidation phenotype; type: in vivo, human
Text: Toxicity assessment was done according to the Cancer and Leukemia Group B (CALGB) expanded toxicity criteria. For grade 3 or greater diarrheal episodes, patients were given loperamide or diphenoxylate hydrochloride plus atropine sulfate (Lomotil®). If diarrhea continued, treatment with octreotide acetate was begun.
Data are expressed as median values and interquartile range (the range of values between the 25th and the 75th percentile of the distribution). Significance has been tested by two-sided statistical tests. […] For this analysis, the adjusted P<0.017 (0.05/3) was considered significant.
Poor and extensive glucuronidators had metabolic ratios lower and higher than 1.2, respectively.

[8] = system: p-glycoprotein expressing cell lines; settings: cited from earlier work

Compound: CCN1CCN(C(=O)N[C@@H](C(=O)N[C@@H]2C(=O)N3C(C(=O)O)=C(CSc4nnnn4C)CS[C@H]23)c2ccc(O)cc2)C(=O)C1=O [Cefoperazone]
- eliminated by biliary secretion ([1]; human, in vivo): 70%
- eliminated by urinary excretion ([1]; human, in vivo): 30%

Compound: CN(C)CCCN1c2ccccc2Sc2ccc(Cl)cc21 [Chlorpromazine hydrochloride, 10H-Phenothiazine-10-propanamine, 2-chloro-N,N-dimethyl-, mono hydrochloride]
- volume of distribution after intramuscular administration ([1]; intramuscular): 21.8 L/kg

Compound: CCOC(=O)C(C)(C)Oc1ccc(Cl)cc1 [Clofibrate, propanoic acid, 2-(4-chlorophenoxy)-2-methyl-,ethyl ester]
- half-life in anuria ([1]; anuria): over 100 hr
- half-life, average or usual value ([1]; human, in vivo): 11 h
- fraction metabolized ([1]; mostly to a glucuronide conjugate): About 60%

Compound: O=C1CN=C(c2ccccc2Cl)c2cc([N+](=O)[O-])ccc2N1 [Clonazepam, 2H-1,4-Benzodiazepin-2-one, 5-(2-chlorophenyl)-1,3-dihydro-7-nitro-]
- therapeutic plasma levels ([1]; human, in vivo): 20 to 80 ng/mL

Compound: OCCN1CCN(CCCN2c3ccccc3Sc3ccc(C(F)(F)F)cc32)CC1 [Fluphenazine hydrochloride]
- absorption (in words) [1]: absorbed rapidly

Compound: CCOC(=O)C1=C(C)NC(C)=C(C(=O)OC)C1c1cccc([N+](=O)[O-])c1 (centres unmarked) [Nitrendipine, 3,5-Pyridinedicarboxylic acid, 1,4-dihydro-2,6-dimethyl-4-(3-nitrophenyl)-, ethyl methyl ester]
- bound to plasma protein ([1]; human, in vivo): About 98%
- half-life, average or usual value ([1]; human, in vivo): 12 h

Compound: CCC1(c2ccccc2)C(=O)NC(=O)NC1=O [Phenobarbital, 2,4,6(1H,3H,5H)-Pyrimidinetrione, 5-ethyl-5-phenyl-]
- fraction of an oral dose absorbed ([1]; human, in vivo, po): Approximately 80%
- therapeutic plasma levels ([1]; human, in vivo): 10000 to 30000 ng/mL
- time to peak plasma levels ([1]; human, in vivo): 16 to 18 h

Compound: O=C1NC(=O)C(c2ccccc2)(c2ccccc2)N1.[Na] [Phenytoin Sodium, 2,4-Imidazolidinedione, 5,5-diphenyl-, monosodium salt]
- lethal plasma levels ([1]; human, in vivo): ~100 µg/mL

Compound: CCCN(CCC)S(=O)(=O)c1ccc(C(=O)O)cc1 [Probenecid]
- absorption (in words) [1]: completely absorbed

Compound: CC(C)NCC(O)COc1cccc2ccccc12 (centres unmarked) [Propranolol]
- bound to plasma protein ([1]; human, in vivo): Approximately 90%
- variability in plasma concentrations after oral administration ([1]; inter-individual): approximately 20 fold

Compound: C=C[C@H]1C[N@@]2CC[C@H]1C[C@@H]2[C@@H](O)c1ccnc2ccc(OC)cc12 [Quinidine]
- elimination by hepatic biotransformation ([1]; human, in vivo): 50-60%

Compound: COC(=O)[C@H]1[C@H]2C[C@@H]3c4[nH]c5cc(OC)ccc5c4CCN3C[C@H]2C[C@@H](OC(=O)c2cc(OC)c(OC)c(OC)c2)[C@@H]1OC [Reserpine, Yohimban-16-carboxylic acid, 11,17-dimethoxy-18-[(3,4,5-trimethoxybenzoyl)oxy]-, methyl ester, (3β, 16β, 17α, 18β, 20α)-]
- absorption (in words) [1]: absorbed poorly and erratically

Compound: CC[C@H](C)C1C(=O)N(C)[C@@H]([C@@H](C)CC)C(=O)NCC(=O)N(C)[C@@H](C(C)C)C(=O)N[C@@H](Cc2ccc(OC)cc2)C(=O)O[C@@H](C)C(=O)N2CCCC[C@H]2C(=O)N(C)[C@@H](C(C)C)C(=O)N[C@@H](C(C)C)C(=O)N(C)[C@@H](CC(=O)OC(C)(C)C)C(=O)N1C (some centres unmarked) [SDZ 280-446] (cyclo(G[NMeV]Y(Me)[Lac][Pip][NMeV]V[NMeD](OtBu)[NMeξIle][NMeI]))
- p-glycoprotein inhibition relative to verapamil (p-glycoprotein [2]): stronger inhibitors than verapamil

Compound: CC(C)(C)c1ccc(C(O)CCCN2CCC(C(O)(c3ccccc3)c3ccccc3)CC2)cc1 (stereo not drawn) [Terfenadine, 1-Piperidinebutanol, α-[4-(1,1-dimethylethyl)phenyl]-4-(hydroxydiphenylmethyl)-]
- bound to plasma protein ([1]; human, in vivo): 97%
- absorption (in words) [1]: absorbed rapidly and almost completely

Compound: C[C@@H]1C[C@H]2[C@@H]3CCC4=CC(=O)C=C[C@]4(C)C3=CC[C@]2(C)[C@H]1C(=O)CN1CCN(c2cc(N3CCCC3)nc(N3CCCC3)n2)CC1 [Tirilazad]
- inhibition of photoaffinity labeling of p-glycoprotein relative to verapamil (p-glycoprotein [3]): more effectively than does verapamil
- sensitization of resistant cells to killing by vinblastine [4]: 66 fold

Compound: CN1CC[C@H](c2c(O[C@@H]3O[C@H](C(=O)O)[C@@H](O)[C@H](O)[C@H]3O)cc(O)c3c(=O)cc(-c4ccccc4Cl)oc23)[C@H](O)C1 [flavopiridol glucuronide, 7-O-β-glucopyranuronosyl-flavopiridol]
- inter-patient variability of plasma level (coefficient of variation) at 23 h ([5]; human, in vivo): 83%
- inter-patient variability of plasma level (coefficient of variation) at 47 h ([5]; human, in vivo): 102%
- inter-patient variability of plasma level (coefficient of variation) at 71 h ([5]; human, in vivo): 107%

Compound: CN1CC[C@H](c2c(O)cc(O)c3c(=O)cc(-c4ccccc4Cl)oc23)[C@H](O)C1 [flavopiridol]
- concentrations showing differential growth inhibitory activity (neoplastic cells): below 200 nM
- Km at 3 h [6]: 642 µM
- extensive glucuronidators who did not develop diarrhea ([7]; extensive glucuronidators): 73%
- patients with grade 1 diarrhea ([7]; first cycle): Five
- patients with grade 2 diarrhea ([7]; first cycle): six
- patients with grade 3 diarrhea ([7]; first cycle): two
- extensive glucuronidators who did not develop diarrhea ([7]; metabolic ratio at 71 h higher than 1.2): 8 of 11
- poor glucuronidators who developed diarrhea ([7]; metabolic ratio at 71 h lower than 1.2): 10 of 11
- diarrhea present in poor glucuronidators of flavopiridol ([7]; poor glucuronidators): 91%
- inter-patient variability of plasma level (coefficient of variation) at 23 h ([5]; 23 h): 81%
- concentration at 23 h ([5]; human, plasma, intravenous, 72 h-continuous infusion 50 mg/m2/day, first cycle, 23 h into the infusion, 22 patients, read-out: median plasma concentration (interquartile range) at 23 h): 389 nM
- concentration at 47 h ([5]; human, plasma, intravenous, 72 h-continuous infusion 50 mg/m2/day, first cycle, 47 h into the infusion, read-out: median plasma concentration (interquartile range) at 47 h): 412 nM
- concentration at 71 h ([5]; human, plasma, intravenous, 72 h-continuous infusion 50 mg/m2/day, first cycle, 71 h into the infusion, read-out: median plasma concentration (interquartile range) at 71 h): 397 nM

Compound: Cc1ccc(C)c(OCCCC(C)(C)C(=O)O)c1 [gemfibrozil]
- plasma concentration after 2 hours ([1]; single dose 600 mg): about 15 Ug/ml
- plasma concentration after 9 hours ([1]; single dose 600 mg): ~5 Ug/ml

Compound: CC[C@H](C)[C@H]1O[C@]2(CC[C@@H]1C)C[C@@H]1C[C@@H](C/C=C(\C)[C@@H](O[C@H]3C[C@H](OC)[C@@H](O[C@H]4C[C@H](OC)[C@@H](O)[C@H](C)O4)[C@H](C)O3)[C@@H](C)/C=C/C=C3\CO[C@@H]4[C@H](O)C(C)=C[C@@H](C(=O)O1)[C@]34O)O2 [ivermectin]
- time to peak concentrations in plasma ([1]; oral administration): ≤ 4 h
- half-life ([1]; verapamil: normal persons): about 10 hours

Compound: OCCN1CCN(CC/C=C2\c3ccccc3Sc3ccc(C(F)(F)F)cc32)CC1 [trans-flupenthixol]
- potency for reversing MDR relative to equimolar concentrations of verapamil [8]: two- to three-fold more potent
- reversal of resistance to doxorubicin, vincristine, and colchicine [8]: fully reversed resistance

Compound: benzothiazepin-4(5H)-one, 3-(acetyloxy)-5-[2-(dimethylamino)ethyl]-2,3-dihydro-2-(4-methoxyphenyl)-, (+)-cis-, monohydrochloride [Diltiazem]
- bound to plasma protein ([1]; human, in vivo): 70-80%
- drug appearing unchanged in the urine ([1]; human, in vivo): Less than 4%
- fraction of an oral dose absorbed ([1]; oral): 80%
- half-life ([1]; plasma/serum/elimination half-life as printed): about 4 hr
